{
  "source": "paper PMC7689712",
  "about": "“Characterization of ancestral myosin XI from Marchantia polymorpha by heterologous expression in Arabidopsis thaliana” (The Plant Journal, 2020)",
  "target": "T1, Mp myosin XI-MD (Marchantia polymorpha, UniProt H3JRT9)",
  "T1 construct": "gene MyoXI; motor domain, residues 1-738; N-terminal FLAG tag (MDYKDDDDKRSMNSRPA), C-terminal GGG-Myc-His8 tag",
  "T1 sequence (H3JRT9 1-738)": "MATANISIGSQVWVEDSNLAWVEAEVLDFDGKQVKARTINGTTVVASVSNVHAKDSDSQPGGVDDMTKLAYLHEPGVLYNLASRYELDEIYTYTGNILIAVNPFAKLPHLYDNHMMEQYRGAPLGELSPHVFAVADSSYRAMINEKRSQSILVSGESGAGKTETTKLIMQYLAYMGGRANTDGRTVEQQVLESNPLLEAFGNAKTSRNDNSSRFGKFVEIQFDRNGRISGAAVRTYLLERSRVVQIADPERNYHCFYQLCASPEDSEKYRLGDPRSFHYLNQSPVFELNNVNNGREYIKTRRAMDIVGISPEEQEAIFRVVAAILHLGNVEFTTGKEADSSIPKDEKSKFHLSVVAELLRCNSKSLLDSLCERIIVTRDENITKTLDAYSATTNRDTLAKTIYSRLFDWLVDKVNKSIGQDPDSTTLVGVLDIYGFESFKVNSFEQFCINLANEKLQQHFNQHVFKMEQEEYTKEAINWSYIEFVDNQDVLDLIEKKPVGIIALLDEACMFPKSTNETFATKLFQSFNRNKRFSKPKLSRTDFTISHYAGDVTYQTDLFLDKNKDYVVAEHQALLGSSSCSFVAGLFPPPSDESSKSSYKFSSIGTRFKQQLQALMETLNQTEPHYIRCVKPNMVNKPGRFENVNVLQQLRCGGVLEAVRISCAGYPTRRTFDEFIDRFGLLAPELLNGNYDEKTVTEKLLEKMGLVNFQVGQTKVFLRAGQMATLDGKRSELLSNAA",
  "experiment": "steady-state actin-activated Mg2+-ATPase assay",
  "assay_type": "biochemical",
  "settings": "F-actin varied, 25 °C",
  "data": [
    {"smiles": "Nc1ncnc2c1ncn2[C@@H]1O[C@H](COP(=O)(O)OP(=O)(O)OP(=O)(O)O)[C@@H](O)[C@H]1O", "note": "[ATP]", "values": [
      {"measurement": "steady-state actin-activated Mg2+-ATPase assay", "result": "we determined the maximum rate of ATP turnover (V max) and the actin concentration"}
    ]}
  ]
}
